Data published in ChEMBL document CHEMBL1201862, “PubChem BioAssay data set” (2004).
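Cells were grown in 96-well plates and exposed to each compound for 48 hours at five concentrations; endpoints were interpolated linearly between bracketing concentrations, or set to the highest concentration if not reached. GI50: concentration for 50% inhibition of growth.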 Active and inactive are the calls of the source. No stated cut-off is given here; in the data, active = GI50 up to about 1.1 µM and inactive = higher.

What was measured:
Experiment in all cases: NCI tumour cell line growth inhibition, 48 h
UACC-62 = system: UACC-62
SNB-75 = system: SNB-75
SNB-78 = system: SNB-78
HCT-15 = system: HCT-15
KM-20L2 = system: KM-20L2
OVCAR-3 = system: OVCAR-3
M19-MEL = system: M19-MEL
RPMI-8226 = system: RPMI-8226
HL-60 = system: HL-60
OVCAR-4 = system: OVCAR-4
RXF 393 = system: RXF 393
MOLT-4 = system: MOLT-4
TK-10 = system: TK-10
NCI-H460 = system: NCI-H460
NCI-H23 = system: NCI-H23
CCRF-CEM = system: CCRF-CEM
K562 = system: K562
M14 = system: M14
Malme-3M = system: Malme-3M
DMS-114 = system: DMS-114
SK-MEL-5 = system: SK-MEL-5
RXF 631 = system: RXF 631
A498 = system: A498
CAKI-1 = system: CAKI-1
A549 = system: A549
HT-29 = system: HT-29
KM12 = system: KM12
IGROV-1 = system: IGROV-1
786-0 = system: 786-0
UO-31 = system: UO-31
SK-MEL-28 = system: SK-MEL-28
U-251 = system: U-251
SK-OV-3 = system: SK-OV-3
SF-295 = system: SF-295
ACHN = system: ACHN
HOP-62 = system: HOP-62
OVCAR-8 = system: OVCAR-8
HCT-116 = system: HCT-116
UACC-257 = system: UACC-257
LXFL 529 = system: LXFL 529
SF-539 = system: SF-539
EKVX = system: EKVX
OVCAR-5 = system: OVCAR-5
HCC 2998 = system: HCC 2998
DMS-273 = system: DMS-273
NCI-H226 = system: NCI-H226
SN12C = system: SN12C
DLD-1 = system: DLD-1
SK-MEL-2 = system: SK-MEL-2
SW-620 = system: SW-620

CCCCCCCCC1C(C)c2c([nH]c3ccccc23)C2C(=O)N(c3ccccc3)C(=O)C21 (stereo not given)
GI50 (UACC-62): 18.9 µM (inactive) | GI50 (SNB-75): 19 µM (inactive) | GI50 (SNB-78): 9.62 µM (inactive) | GI50 (HCT-15): 11.2 µM | GI50 (KM-20L2): 11.2 µM (inactive) | GI50 (OVCAR-3): 5.08 µM (inactive) | GI50 (M19-MEL): 15.7 µM (inactive) | GI50 (RPMI-8226): 3.4 µM (inactive) | GI50 (HL-60): 3.27 µM (inactive) | GI50 (OVCAR-4): 4.3 µM (inactive) | GI50 (RXF 393): 2.38 µM (inactive) | GI50 (MOLT-4): 2.27 µM (inactive) | GI50 (TK-10): 20.1 µM (inactive) | GI50 (NCI-H460): 3.82 µM (inactive) | GI50 (NCI-H23): 3.73 µM (inactive) | GI50 (CCRF-CEM): 2.76 µM (inactive) | GI50 (K562): 3.9 µM (inactive) | GI50 (M14): 14 µM (inactive) | GI50 (Malme-3M): 19.5 µM (inactive) | GI50 (DMS-114): 10.6 µM (inactive) | GI50 (SK-MEL-5): 16.3 µM (inactive) | GI50 (RXF 631): 3.41 µM (inactive) | GI50 (A498): 21.1 µM (inactive) | GI50 (CAKI-1): 14 µM (inactive) | GI50 (A549): 14 µM (inactive) | GI50 (HT-29): 4.7 µM (inactive) | GI50 (KM12): 3.71 µM (inactive) | GI50 (IGROV-1): 17.6 µM (inactive) | GI50 (786-0): 13.1 µM (inactive) | GI50 (UO-31): 15.2 µM (inactive) | GI50 (SK-MEL-28): 16.8 µM (inactive) | GI50 (U-251): 8.53 µM (inactive) | GI50 (SK-OV-3): 28.7 µM (inactive) | GI50 (SF-295): 15.7 µM (inactive) | GI50 (ACHN): 11.5 µM (inactive) | GI50 (HOP-62): 21 µM (inactive) | GI50 (OVCAR-8): 11.1 µM (inactive) | GI50 (HCT-116): 3.27 µM (inactive) | GI50 (UACC-257): > 10 µM (inactive) | GI50 (LXFL 529): 16.5 µM (inactive) | GI50 (SF-539): 17.3 µM (inactive) | GI50 (EKVX): 21.1 µM (inactive) | GI50 (OVCAR-5): 18.3 µM (inactive) | GI50 (HCC 2998): 12.5 µM (inactive) | GI50 (DMS-273): 9.75 µM (inactive) | GI50 (NCI-H226): 11.8 µM (inactive) | GI50 (SN12C): 11.4 µM (inactive) | GI50 (DLD-1): 18.9 µM (inactive) | GI50 (SK-MEL-2): 16 µM (inactive) | GI50 (SW-620): 14.8 µM (inactive)
